According to patent US6887894B2, “Use of lipoic acid for improving the bioavailability of mineral salts” (BASF Aktiengesellschaft, priority 2000, dated 2005):
Marks after values point to notes of the source that are not given here.

Tests used:
[1] = pigs; cited from earlier work
[2] = growing rats, suboptimal Zn supply, 1% citric acid added to phytic-acid-rich corn-germ-based diets; cited from earlier work
[3] = in vivo; cited from earlier work
[4] = in vivo; cited from earlier work; remark: listed apart in the source
[5] = Study 3: Zn intake, fecal excretion and apparent absorption of zinc; format: in vivo; conditions: rats
Procedure: (§1) 36 male Wistar albino rats (Harlan Winkelmann, Borchen) having an initial weight of 47.0±2.63 g were randomly divided into 6 groups each of 6 animals and fed the diets specified in Table 7 (experimental design) and Section 5.2 over a period of 28 days. The animals were kept individually in Makrolon cages on stainless grids under standard conditions (22° C., 55% relative humidity, 12 hour light/dark rhythm). Feed and deionized drinking water were available to the experimental animals ad libitum. During the 2nd and 3rd experimental week (metabolism phase) feces were collected quantitatively. After completion of the experimental phase (day 28), the animals were decapitated under CO2— anesthesia, exsanguinated and the tissue to be analyzed was removed. Groups Ib, IIb and IIIb here are Example 5, while Groups Ia, IIa and IIIa are Comparison Example 2.
During the two-week metabolism phase, the rat feces were collected daily, adherent feed residues and other impurities were removed and the samples were stored at −20° C. At the end of the metabolism period the fecal weight was determined quantitatively and feces were then freeze-dried under vacuum over a period of 48 h (Gamma 1-20, Christ, Osterode). The dried samples were finely around using a domestic grinder (Moulinette electronic 89902) and stored at ambient temperature in PE bottles.
A sample aliquot of 1.5 g or the freeze-dried and ground fecal samples was dried for 24 h at 105° C. to remove residual water and then ashed in a muffle furnace at 450° C. for 21 h. The ash residue was dissolved by acid addition and then analyzed quantitatively. The Zn concentration in the fecal samples was determined by flame-AAS (Philips, PU 9400, Kassel). • 5.3.4 Diagnosis of Zn status
(§2) Zn absorption was calculated, without taking into account endogenous level as a difference between element […] and fecal excretion (=apparent absorption). Plasma Zn concentration was determined by AAS (Philips, PU 9400, Kassel). The samples were diluted with 0.1 M HCl in a ratio of 1:20 (v/v). The activity of the Zn metalloenzyme alkaline phosphatase (AP) (E.C. 3.1.3.1) wan assayed using the individual chemicals diethanolamine buffer and p-nitrophenyl phosphate according to the recommendations of the […] FÜR […] CHIMIE [German Clinical Chemistry Society] ([…] FÜR […] CHEMIE (1972). Standardmethode zur Bestimmung der Aktivität der alkalischen Phosphatase (AP) [Standard Method for Determining Alkaliur Phosphatase (AP) Activity]. Z. klin. Chem u. klin. Biochemie. 10, 191). • 5.3.5 Metallothionin in liver tissue

metallothionin = assay: Study 3: metallothionin in liver tissue; format: in vivo; conditions: rats, day 28
Procedure: as §1
Total MT concentration in liver tissue was determined using the cadmium-binding method of EATON and TOAL (EATON, D. L., TOAL, B. F. (1982): Evaluation of the cadmium/hemoglobin affinity assay for the rapid determination of metallothionein in biological tissues. Toxicol Appl. Pharmacol. 66, 134-142) in a modification tested at the Giessen Institute (LEUNERT, V. (1994): Einfluβ von Zink sowie fetalem Kälberserum, bovinem Serumalbumin und calciummobilisierenden Rezeptoragonlsten auf Metallothionein in primär kultivierten Rattenhepatocyten [Effect of zinc and fecal calf serum, vine serum albumin and calcium-immobilizing receptor agonists on metallothionin in primary cultivations of rat hepatocytes]. Inaugural dissertation at the Institut für Tierernahrung und Ernährungse-physiologie [Institute of Animal Nutrition and Nutritional Physiology] of the University of Cicesen, Verlag Shaker, Aachen, PALLAUF et al. 1995). The protein content in liver homogenates war determined using the Lowry-Folin method (DAWSON, R. M. C. ELLIOTT, D C; JONES, K. M. (1986): Data for biochemical research, 3rd ed., Clarendon Press, New York, 543). • 5.3.5. Statistical analysis

[6] = test system: alkaline phosphatase (AP) (E.C. 3.1.3.1); assay: Study 3: alkaline phosphatase activity in plasma; format: in vivo; conditions: rats, day 28
Procedure: as §1, §2

[7] = Study 3: zootechnical parameters (feed intake, live weight) of growing rats; format: in vivo; conditions: for LW Gain: 28 days; for Live weight d0: initial weight
Procedure: as §1
Parameters used to estimate Zn availability were the zootechnical parameters feed intake, live weight development and live weight increase, apparent Zn absorption, alkaline phosphatase activity in plasma, plasma and femur Zn concentration and metallothionin concentration in liver tissue. • 5.2 Experimental diets
The experimental animals were fed semisynthetic diets based on high-purity components (corn starch, egg albumin protein, sucrose, soybean oil and cellulose) over a period of 28 days (see Table 8 for composition of the base diet), the experimental diets differing with respect to the type of zinc compound supplemented, the absolute Zn concentration and the phytic acid content (0.4% PA from NaPA, Sigma-Aldrich, Steinheim) (see Table 7).
Zn supplements used were Zn ((R)-α-Lipoat)2(H2O)2 from Example 1 (Example 5) and Zn sulfate (ZnSO4.7 H2O analytical grade, Merck, Darmstadt) (Comparison Example 2). The Zn concentrations of the experimental diets Ia-IIb were set at a level of 10 mg/kg of diet estimated to be marginal for growing rats, in order to enable investigation of the availability of the Zn supplements under test in the suboptimun supply range.

[8] = Study 3: plasma Zn concentration; format: in vivo; conditions: rats, day 28
Procedure: as §1
The samples were diluted with 0.1 M HCl in a ratio of 1:20 (v/v). […] CHIMIE [German Clinical Chemistry Society]

[9] = Study 1/Study 2: bioavailability of Zn lipoate and ZnSO4 in rats (Example 4, Comparison Example 1); format: in vivo; conditions: diet with 0.4% NaPA, high dose 20 mg Zn/kg of feed, 28 days
Procedure: Male Albino rats (Wistar) of an initial weight of 40 g were used. The animals were kept during each 28-day experimental period at a room temperature of 22° C., a relative humidity of approximately 55% and in a 12-hour light-dark cycle. The rats were housed individually in Makrolon cages with stainless steel bottoms which permitted controlled feed intake and quantitative collection of feces and urine. The feed was provided once a day at 8^00. The live mass of the rats was determined weekly, feces and urine were collected every day at 10^00 and 17^00. At the end of the experiment, the rats were decapitated after chloroform anesthesia. • 4.2 Description of the diets and experimental design
6 rats are used per experimental group. The mealy diets were administered ad lib. […] The control group (group 1) received the PA-free base diet.
The amounts of feces and urine produced separately in the metabolic cages are collected quantitatively every day and stored at −22° C. To avoid any losses of N in the urine collection vessels, 1 ml of 20% strength HCl (Suprapur) is added to each of the vessels daily. For further analysis, the sample material is freeze-dried for 48 h. • 4.3.2 Organ and tissue samples
The right femur, liver and testes are removed immediately after decapitation and complete exsanguination of the animals and the fresh mass is determined. The samples are sealed in plastic film and stored at −22° C. until further analysis. • 4.3.3 Blood
The rats are decapitated at the end of the experiment after complete narcosis with chloroform and the blood collected in heparinized plastic tubes. 40 I.U. of heparin sodium are introduced per ml of blood. […]
Zinc is determined by means of atomic absorption spectrophotometry (AAS) in an acetylene flame. • 4.5 Diagnosis of zinc status • 4.5.1 Determination of the plasma zinc concentration
The plasma zinc concentration is measured directly in the flame by means of AAS (Philips, PIJ 9400). […]
The enzyme activity is measured kinetically on a semimicroscale at a wavelength of 405 nm and 25° C. using a UV spectrophotometer. […]

[10] = Study 3: Zn concentration in the femur; format: in vivo; conditions: rats, day 28
Procedure: as §1
The ash solutions were prepared by the principle of wet ashing. The sample material was admixed with 10 ml of 65% strength HNO3 (Merck, Suprapur) and then boiled under a reflux condenser in a digestion apparatus (Gerhardt SMA-20, Bonn). This oxidatively degraded the organic matrix and completely mineralized the test material. The Zn concentration was determined in the ash solutions by flame-AAS (Philips, PU 9400, Kassel). • 5.3.3 Analysis of the fecal samples

[11] = in vivo; cited from earlier work; remark: listed apart in the source
[12] = in vivo; cited from earlier work; remark: listed apart in the source
[13] = 10 ppm Zn, PA-free diet (group I)
[14] = 20 ppm Zn + 0.4% PA (group III)

O=C(O)CC(O)(CC(=O)O)C(=O)O [citric acid]
effect on Zn utilization [1]: positive effects | Zn status (plasma Zn concentration, alkaline phosphatase activity, metallothioneine concentration in the jejunum) [2]: moderate improvement

O=C(O)c1ccccn1 [picolinic acid]
effects on Zn bioavailability (results of previous studies) [3]: not uniform

CCC(=O)[O-].CCC(=O)[O-].[Zn+2] [zinc propionate]
bioavailability of Zn2+ from organic or inorganic sources [4]: roughly comparable

[Cl-].[Cl-].[Zn+2] [ZnCl2]
bioavailability of Zn2+ from organic or inorganic sources [4]: roughly comparable

O.O.O.O.O.O.O.O=S(=O)([O-])[O-].[Zn+2] [Zn sulfate, ZnSO4.7 H2O]
Apparent absorption of Zn ([5]; 10 ppm Zn + 0.4% PA (group II)): 43.0 ^a % | Apparent absorption of Zn (absolute) ([5]; 10 ppm Zn + 0.4% PA (group II)): 0.351 ^a mg/14 d | Fecal excretion of Zn ([5]; 10 ppm Zn + 0.4% PA (group II)): 0.484 ^a mg/14 d | Apparent absorption of Zn [5, 13]: 76.4 ^b % | Apparent absorption of Zn (absolute) [5, 13]: 1.35 ^bc mg/14 d | Fecal excretion of Zn [5, 13]: 0.411 ^a mg/14 d | Apparent absorption of Zn [5, 14]: 43.9 ^a % | Apparent absorption of Zn (absolute) [5, 14]: 1.13 ^b mg/14 d | Fecal excretion of Zn [5, 14]: 1.43 ^b mg/14 d | Metallothionin concentration in liver tissue (metallothionin; 10 ppm Zn + 0.4% PA (group II)): 6.36 ng MT/mg Protein | Metallothionin concentration in liver tissue (metallothionin; [13]): 8.08 ng MT/mg Protein | Metallothionin concentration in liver tissue (metallothionin; [14]): 7.58 ng MT/mg Protein | Alkaline Phosphatase activity in plasma ([6]; 10 ppm Zn + 0.4% PA (group II)): 216 ^a mU/ml Plasma | Alkaline Phosphatase activity in plasma [6, 13]: 383 ^b mU/ml Plasma | Alkaline Phosphatase activity in plasma [6, 14]: 347 ^b mU/ml Plasma | Feed intake Total ([7]; 10 ppm Zn + 0.4% PA (group II)): 166 ^a g/28d | Feed intake d1-d7 ([7]; 10 ppm Zn + 0.4% PA (group II)): 37.4 ^a g | Feed intake d8-d14 ([7]; 10 ppm Zn + 0.4% PA (group II)): 42.3 ^a g | Feed intake d15-d21 ([7]; 10 ppm Zn + 0.4% PA (group II)): 40.5 ^a g | Feed intake d22-d28 ([7]; 10 ppm Zn + 0.4% PA (group II)): 45.3 ^a g | Live weight d7 ([7]; 10 ppm Zn + 0.4% PA (group II)): 62.0^a g | Live weight d14 ([7]; 10 ppm Zn + 0.4% PA (group II)): 84.6^a g | Live weight d21 ([7]; 10 ppm Zn + 0.4% PA (group II)): 94.2^a g | Live weight d28 ([7]; 10 ppm Zn + 0.4% PA (group II)): 106.5^a g | LW Gain ([7]; 10 ppm Zn + 0.4% PA (group II)): 60.7^a g | Live weight d0 ([7]; 10 ppm Zn + 0.4% PA (group II)): 45.8 g | Feed intake Total [7, 13]: 272 ^b g/28d | Feed intake d1-d7 [7, 13]: 40.4 ^ab g | Feed intake d8-d14 [7, 13]: 67.8 ^bc g | Feed intake d15-d21 [7, 13]: 77.5 ^bc g | Feed intake d22-d28 [7, 13]: 86.6 ^b g | Live weight d7 [7, 13]: 58.1^ab g | Live weight d14 [7, 13]: 104.2^ab g | Live weight d21 [7, 13]: 141.3^bc g | Live weight d28 [7, 13]: 175.8^bc g | LW Gain [7, 13]: 128.5^bc g | Live weight d0 [7, 13]: 47.3 x g | Feed intake Total [7, 14]: 253 ^b g/28d | Feed intake d1-d7 [7, 14]: 49.6 ^ab g | Feed intake d8-d14 [7, 14]: 61.0 ^b g | Feed intake d15-d21 [7, 14]: 67.9 ^b g | Feed intake d22-d28 [7, 14]: 74.8 ^b g | Live weight d7 [7, 14]: 68.4^ab g | Live weight d14 [7, 14]: 102.4^ab g | Live weight d21 [7, 14]: 132.3^b g | Live weight d28 [7, 14]: 161.9^b g | LW Gain [7, 14]: 114.7^b g | Live weight d0 [7, 14]: 47.2 g | Zn concentration in Plasma ([8]; 10 ppm Zn + 0.4% PA (group II)): 0.57 ^a μg/ml | Zn concentration in Plasma [8, 13]: 1.11 ^bc μg/ml | Zn concentration in Plasma [8, 14]: 0.80 ^ac μg/ml | zinc deficiency symptoms (anorexia, alopecia, depression of growth) [9]: still present | Zn concentration in Femur ([10]; 10 ppm Zn + 0.4% PA (group II)): 36.3 ^a μg/g FW | Zn concentration in Femur [10, 13]: 81.4 ^c μg/g FW | Zn concentration in Femur [10, 14]: 55.4 ^b μg/g FW

O=C(O)C(=O)O [oxalic acid]
effects on Zn bioavailability (results of previous studies) [3]: not uniform

O=C1O[C@H]([C@@H](O)CO)C(O)=C1O [Ascorbic acid]
effect on bioavailability of inorganic iron [11]: increases | effect on bioavailability of dietary zinc [12]: does not change
